Data taken from patent US20230225991A1, “COMPOUNDS FOR USE IN THE TREATMENT OF ACUTE INTERMITTENT PORPHYRIA” (VESTLANDETS INNOVASJONSSELSKAP AS, priority 2019, published 2023).
Entries after “also recorded” stand apart in the source; their conditions may differ.

Assays:
[1] = system: Hmbs-deficient T1/T2−/− mice; assay: Mouse trial T1/T2-A, phenobarbital-induced biochemical acute attack
HMBS = molecular target: T1, HMBS (Homo sapiens, UniProt P08397); assay: Octet RED96 binding (S0.5); parameters: Full-length HMBS was cloned into pET-28a(+)-TEV vector and transformed into BL21 (DE3) cells for expression; 6xHis (N, cleaved yes); TEV protease cleavage site (N, cleaved yes); made in house; host or cells: E. coli BL21 (DE3); details: sigmoidal binding isotherm, SSA biosensors, biotinylated HMBS; read-out: S0.5 (concentration for half-maximal binding), Octet
T1 sequence (P08397 1-361): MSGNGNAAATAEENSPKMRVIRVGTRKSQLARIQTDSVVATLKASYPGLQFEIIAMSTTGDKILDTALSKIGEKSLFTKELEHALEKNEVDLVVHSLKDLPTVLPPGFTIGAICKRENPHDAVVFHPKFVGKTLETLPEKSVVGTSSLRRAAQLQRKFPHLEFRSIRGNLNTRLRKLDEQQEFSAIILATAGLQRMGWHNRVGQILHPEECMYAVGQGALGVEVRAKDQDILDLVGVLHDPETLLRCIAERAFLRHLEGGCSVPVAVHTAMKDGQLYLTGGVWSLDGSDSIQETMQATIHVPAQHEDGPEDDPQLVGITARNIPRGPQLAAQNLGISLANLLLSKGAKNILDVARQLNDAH
Description: The enzyme used in the binding assays using the Octet RED96 was expressed using a new construct with an N-terminal 6×HIS affinity tag and a TEV protease cleavage site. Full-length HMBS was cloned into pET-28a(+)-TEV vector and transformed into BL21 (DE3) cells for expression. Expression was done in Terrific Broth medium with IPTG induction. Cells were cultured 16 h at 20° C. with 220 rpm shaking. After harvesting, the cells were lysed with sonication, and standard affinity purification was performed using Ni-NTA affinity matrix. Protein was eluted with 20 mM HEPES, 150 mM NaCl (gel filtration buffer), pH 8 supplemented with 400 mM imidazole. […]
Octet RED96 system (ForteBio Biologics by Molecular Devices, LLC., San Jose, Calif.) with super streptavidin (SSA) biosensors was used as an additional method for determining the Kd-value for the binding of the compounds. […] Triplicates for the concentration series of the compounds were measured, and double reference subtraction was applied for data analysis based on the steady-state kinetics with equilibrium binding signal (Req) using ForteBio Data analysis 9.0. […]
The binding of compounds BG-1 and BG-2 to HMBS was analyzed by surface plasmon resonance (SPR) and response units from concentration-dependent steady state measurements were analyzed assuming a 1:1 binding model. […]

WT-HMBS [2] = molecular target: T2, WT-HMBS (Homo sapiens, UniProt P08397); assay: HMBS activity after pre-incubation with compound at 70° C.; type: biochemical; details: pre-incubation with compound at 70° C. 20 min, then standard assay 100 μM PBG at 37° C., 84 μM compound, 2% DMSO
T2 construct: Full-length HMBS was cloned into pET-28a(+)-TEV vector and transformed into BL21 (DE3) cells for expression; 6xHis (N, cleaved yes); TEV protease cleavage site (N, cleaved yes); made in house; host or cells: E. coli BL21 (DE3)
T2 sequence (P08397 1-361): T1 sequence (P08397 1-361)
Description: The effect of the compounds on the stability of HMBS activity was assayed by pre-incubating the HMBS (4-5 μg) in 50 mM HEPES pH 8.2, 84 μM compound and 2% DMSO for 20 min at 70° C., and then placed on ice for 5 min. The enzymatic activity at 37° C. was subsequently measured as reported previously (Bustad et al., Bioscience reports 2013; 3 3(4)). Controls without compound but with equal concentration of DMSO were included. The remaining activity in the presence of compounds was normalized relative to DMSO-control (relative activity). […] USA, www.graphpad.com.
An enzymatic assay was performed to investigate the effect of compound BG-1 on the activity and conformational stability of HMBS. HMBS activity of the purified enzyme was measured in the absence and presence of compound BG-1 (at 84 μM) at standard conditions (37° C.) but also after pre-incubation at 70° C. for 20 min based on the high thermal stability of WT-HMBS.

WT-HMBS [3] = molecular target: T2, WT-HMBS; assay: Surface plasmon resonance (SPR), HMBS immobilized to sensor chip; details: sigmoidal fitting of binding isotherm, 25° C., 0-200 μM compound; read-out: S0.5 (concentration for half-maximal binding), SPR
Description: Surface plasmon resonance experiments for the estimation of the concentration of compound at half-maximal binding (S0.5) were performed using a Biacore T200 (GE Healthcare) instrument at 25° C. 150 μg/ml WT-HMBS in 10 mM sodium acetate pH 4.5 was immobilized onto a CM5-S sensor chip through amine-coupling chemistry and PBS containing 0.05% surfactant P20 as running buffer, reaching immobilization levels ˜15,000. The baseline was equilibrated for 1-2 h, before the compounds were assayed in a concentration-dependent manner (0-200 μM), using running buffer with 5% DMSO and 30 μl/min flow rate. Contact and dissociation time was 60 s, with a final wash after 50% DMSO injection. Blank immobilization, solvent correction and negative control (assay buffer) were included for the analysis of the sensorgrams using the Biacore T200 Evaluation software v2.0. The allosteric sigmoidal curve fitting was performed using GraphPad Prism.
The binding of compounds BG-1 and BG-2 to HMBS was analyzed by surface plasmon resonance (SPR) and response units from concentration-dependent steady state measurements were analyzed assuming a 1:1 binding model. […] The interaction between compound BG-1 and HMBS was therefore further studied with Octet RED96 system with super streptavidin (SSA) biosensors. […]

| SMILES | Toxicity in treated mice ([1]; 10 mg/kg/day oral gavage, 12 days, behavior and organ appearances) | HMBS protein levels or activity in erythrocytes or liver ([1]; 10 mg/kg/day, 12 days, compared to non-treated Hmbs-deficient mice) | Urinary levels of ALA ([1]; 10 mg/kg/day, day 12, compared to non-treated mice) | Kd (HMBS) [µM] | Relative activity, pre-inc. at 70° C (WT-HMBS [2]) | Kd (WT-HMBS [3]) [µM] |
| --- | --- | --- | --- | --- | --- | --- |
| O=Cc1cc(Cc2ccccc2Cl)cc([N+](=O)[O-])c1O [BG-1] | No apparent toxicity; also recorded: No toxic effect was registered | did not cause any significant change | slight decreasing tendency | 83 ± 7 | 1.01 ± 0.06 |  |
| O=C(c1ccccc1)c1ccc(Cl)c([N+](=O)[O-])c1 [BG-2] |  |  |  |  |  | 63 ± 3 |
